The source of these data is the OligoGym collection.

The target in the data set is UBE3A-ATS. Kind of data set: mouse, dose not given. To be noted: ASO.

HELM strings list units from the 5' end as sugar, base in round brackets, then linkage (d deoxyribose, r ribose, m 2'-O-methyl, p phosphodiester). Strings are as the collection lists them; they lack the last nucleoside at the 3' end of the tested compound. [moe] = 2'-O-(2-methoxyethyl) (MOE); [sp] = phosphorothioate linkage; [m5C] = 5-methylcytosine

Regarding “RNA1{[moe](T)[sp].[moe](G)p.[moe](A)p.[moe](T)p.[moe]([m5C])p.[moe](A)p.d([m5C])[sp].d(A)[sp].d(T)[sp].d(T)[sp].d(A)[sp].d([m5C])[sp].d([m5C])[sp].d([m5C])[sp].d(A)[sp].d(T)[sp].[moe]([m5C])p.[moe]([m5C])[sp].[moe](G)}$$$$ (last 3' nucleoside missing)”, the 3 h FOB score turned out to be 0 score 0-7. In the case of “RNA1{[moe](T)[sp].[moe](G)p.[moe](A)p.[moe](T)p.[moe]([m5C])p.d(A)[sp].d([m5C])[sp].d(A)[sp].d(T)[sp].d(T)[sp].d(A)[sp].d([m5C])[sp].d([m5C])[sp].d([m5C])[sp].d(A)[sp].[moe](T)p.[moe]([m5C])p.[moe]([m5C])[sp].[moe](G)}$$$$ (last 3' nucleoside missing)”, the 3 h FOB score was 0 score 0-7. Substance “RNA1{[moe](T)[sp].[moe](G)p.[moe](A)p.[moe](T)p.[moe]([m5C])p.d(T)[sp].d(A)[sp].d(T)[sp].d(T)[sp].d(A)[sp].d(T)[sp].d(G)[sp].d(A)[sp].d(G)[sp].d(G)[sp].[moe](G)p.[moe]([m5C])p.[moe](A)[sp].[moe](T)}$$$$ (last 3' nucleoside missing)” showed a 3 h FOB score of 2 score 0-7. With “RNA1{[moe](T)[sp].[moe](G)p.[moe](A)p.[moe](T)p.d([m5C])[sp].d(A)[sp].d([m5C])[sp].d(A)[sp].d(T)[sp].d(T)[sp].d(A)[sp].d([m5C])[sp].d([m5C])[sp].d([m5C])[sp].[moe](A)p.[moe](T)p.[moe]([m5C])p.[moe]([m5C])[sp].[moe](G)}$$$$ (last 3' nucleoside missing)” the figure was 1 score 0-7; with “RNA1{[moe](T)[sp].[moe](G)p.[moe](G)p.[moe](G)p.[moe](T)p.d(T)[sp].d(A)[sp].d([m5C])[sp].d(T)[sp].d(T)[sp].d(T)[sp].d([m5C])[sp].d([m5C])[sp].d(A)[sp].d(A)[sp].[moe](T)p.[moe](A)p.[moe](G)[sp].[moe](A)}$$$$ (last 3' nucleoside missing)”, 5.7 score 0-7. With “RNA1{[moe](T)[sp].[moe](G)p.[moe](G)p.[moe](T)[sp].d([m5C])[sp].d(A)[sp].d(T)[sp].d([m5C])[sp].d(T)[sp].d([m5C])[sp].d(G)[sp].d(G)[sp].[moe](G)p.[moe](T)p.[moe](A)p.[moe](T)[sp].[moe](A)}$$$$ (last 3' nucleoside missing)” the figure was 4.7 score 0-7. For “RNA1{[moe](T)[sp].[moe](G)p.[moe](G)p.[moe](T)p.[moe](A)p.d(T)[sp].d(T)[sp].d(G)[sp].d(A)[sp].d([m5C])[sp].d(A)[sp].d([m5C])[sp].d([m5C])[sp].d(T)[sp].d([m5C])[sp].[moe]([m5C])p.[moe](A)p.[moe](A)[sp].[moe]([m5C])}$$$$ (last 3' nucleoside missing)” the value was 0.3 score 0-7.

“RNA1{[moe](T)[sp].[moe](G)p.[moe](G)p.[moe](T)p.[moe]([m5C])[sp].d(A)[sp].d(T)[sp].d([m5C])[sp].d(T)[sp].d([m5C])[sp].d(G)[sp].d(G)[sp].d(G)[sp].[moe](T)p.[moe](A)p.[moe](T)[sp].[moe](A)}$$$$ (last 3' nucleoside missing)” registered a 3 h FOB score of 6.3 score 0-7.

Turning to “RNA1{[moe](T)[sp].[moe](G)p.[moe](G)p.[moe](T)p.[moe]([m5C])p.[moe](A)[sp].d(T)[sp].d([m5C])[sp].d(T)[sp].d([m5C])[sp].d(G)[sp].d(G)[sp].d(G)[sp].d(T)[sp].[moe](A)p.[moe](T)[sp].[moe](A)}$$$$ (last 3' nucleoside missing)”, the 3 h FOB score was 4.7 score 0-7. With “RNA1{[moe](T)[sp].[moe](G)p.[moe](G)p.[moe](T)p.[moe]([m5C])p.[moe](A)p.d(T)[sp].d([m5C])[sp].d(T)[sp].d([m5C])[sp].d(G)[sp].d(G)[sp].d(G)[sp].d(T)[sp].d(A)[sp].d(T)[sp].[moe](A)p.[moe](T)[sp].[moe](A)}$$$$ (last 3' nucleoside missing)” the figure was 6 score 0-7; with “RNA1{[moe](T)[sp].[moe](G)p.[moe](G)p.[moe](T)p.[moe]([m5C])p.d(A)[sp].d(T)[sp].d([m5C])[sp].d(T)[sp].d([m5C])[sp].d(G)[sp].d(G)[sp].d(G)[sp].d(T)[sp].d(A)[sp].[moe](T)p.[moe](A)p.[moe](T)[sp].[moe](A)}$$$$ (last 3' nucleoside missing)”, 5.2 score 0-7.

“RNA1{[moe](T)[sp].[moe](G)p.[moe](G)p.[moe](T)p.d([m5C])[sp].d(A)[sp].d(T)[sp].d([m5C])[sp].d(T)[sp].d([m5C])[sp].d(G)[sp].d(G)[sp].d(G)[sp].d(T)[sp].[moe](A)p.[moe](T)p.[moe](A)p.[moe](T)[sp].[moe](A)}$$$$ (last 3' nucleoside missing)” displayed a 3 h FOB score of 4 score 0-7. With “RNA1{[moe](T)[sp].[moe](G)p.[moe](G)p.[moe]([m5C])p.[moe](A)p.d(A)[sp].d(G)[sp].d(T)[sp].d(A)[sp].d(T)[sp].d(G)[sp].d([m5C])[sp].d(T)[sp].d(A)[sp].d(G)[sp].[moe](T)p.[moe]([m5C])p.[moe](A)[sp].[moe]([m5C])}$$$$ (last 3' nucleoside missing)” the figure was 2.3 score 0-7; with “RNA1{[moe](T)[sp].[moe](G)p.[moe](G)p.[moe]([m5C])p.[moe](T)p.d(T)[sp].d(T)[sp].d(A)[sp].d(T)[sp].d(A)[sp].d([m5C])[sp].d(T)[sp].d(T)[sp].d(T)[sp].d(A)[sp].[moe]([m5C])p.[moe]([m5C])p.[moe]([m5C])[sp].[moe](A)}$$$$ (last 3' nucleoside missing)”, 0.7 score 0-7. With “RNA1{[moe](T)[sp].[moe](G)p.[moe](T)p.[moe](A)p.[moe](T)p.d([m5C])[sp].d(A)[sp].d(G)[sp].d(G)[sp].d([m5C])[sp].d(A)[sp].d(A)[sp].d([m5C])[sp].d(A)[sp].d(G)[sp].[moe](A)p.[moe](A)p.[moe](T)[sp].[moe]([m5C])}$$$$ (last 3' nucleoside missing)” the figure was 4.7 score 0-7. With “RNA1{[moe](T)[sp].[moe](G)p.[moe](T)p.[moe](A)p.[moe]([m5C])p.d(A)[sp].d(A)[sp].d(A)[sp].d([m5C])[sp].d(G)[sp].d(G)[sp].d(G)[sp].d([m5C])[sp].d(T)[sp].d(A)[sp].[moe](T)p.[moe](G)p.[moe](T)[sp].[moe](G)}$$$$ (last 3' nucleoside missing)” the figure was 7 score 0-7; with “RNA1{[moe](T)[sp].[moe](G)p.[moe](T)p.[moe](G)[sp].d([m5C])[sp].d(A)[sp].d(T)[sp].d(A)[sp].d([m5C])[sp].d([m5C])[sp].d([m5C])[sp].d(A)[sp].[moe](G)p.[moe](G)p.[moe](G)p.[moe](T)[sp].[moe](A)}$$$$ (last 3' nucleoside missing)”, 1 score 0-7.

Substance “RNA1{[moe](T)[sp].[moe](G)p.[moe](T)p.[moe](G)p.[moe](A)p.d(G)[sp].d(A)[sp].d(T)[sp].d(A)[sp].d(A)[sp].d(T)[sp].d(T)[sp].d([m5C])[sp].d(A)[sp].d(G)[sp].[moe](G)p.[moe](A)p.[moe](G)[sp].[moe](G)}$$$$ (last 3' nucleoside missing)” registered a 3 h FOB score of 5 score 0-7.
